US11759434B2, “Methods and compositions for treating melanoma and non-melanoma skin cancers” (Sytheon Limited, priority 2022, dated 2023)
pIC50: −log10 of the molar value. Blank lines part the entries; values can stand above or below the compound they belong to.

Experiments:
[1] = test system: Senescent Associated β-Galactosidase (SA-B-Gal); assay: Senescent Associated β-Galactosidase (SA-B-Gal) activity assay; assay type: cell-based, human; details: 3 days
Procedure: (§1) AMPK activation is a known and efficacious treatment for melanoma and non-melanoma skin cancer (See. e.g., Chen. L. et. al., “AMPK Activation by GSK621 Inhibits Human Melanoma Cells In Vitro and In Vivo”, Biochemical and Biophysical Research Communications 480 (2016), 515-521). To ascertain the ability and efficacy of the compounds of Structure 1 to activate AMPK, a cell assay study was undertaken. In the study, human epidermal keratinocytes were grown using EpiLife Media (60 μM calcium) supplemented with 0.2% v/v bovine pituitary extract, 1 μg/ml recombinant human insulin-like growth factor-I, 0.18 μg/ml hydrocortisone, 5 μg/ml bovine transferrin, 0.2 ng/ml human epidermal growth factor. The cells were grown at 37±2° C. and 5±1% CO2. The keratinocytes were seeded into 96-well plates and cultured overnight to allow the cells to adhere to the well plates. Prior to experimental use, the growth media was replaced with basal media (unsupplemented EpiLife Media) for five hours prior to starting any treatments.
(§2) The foregoing effect of AZ as an AMPK activator and, in turn, anti-melanoma treatment is especially surprising in light of the pro-viability effect of AZ in normal cells, even those in senescence. Specifically, following on the foregoing experimental methodology, additional studies were conducted on the human keratinocytes cells to assess AZ's impact on cell viability as evidenced by an MTT assay as well as an assessment of its impact on SA-B-Gal activity. In these studies, the human epidermal keratinocytes were treated in basal media for two hours with the test material and then treated with either 50 uM or 100 uM H2O2 in basal media for an additional two hours: the latter treatment to induce senescence. Following the H2O2 treatment, the cells were placed in with fully supplemented EpiLife media for either 16 hours after which changes in cell viability was evaluated via an MTT assay or for 3 days after which changes in the cellular senescence marker beta galactosidase (SA-B-GAL) was evaluated.
SA-B-GAL Calculation: To determine the changes in SA-B-GAL expression a direct measure of SA-B-GAL activity was used. At the end of the three-day incubation the media was removed, 100 ul of ice-cold cell lysis buffer was added and the cells were lysed for 5 minutes at 4° C. At the end of this lysis procedure a portion of the lysate was used for a protein assay while 50 ul of the cell lysate was transferred to a new well plate and combined with an equal volume of SA-B-GAL reaction buffer containing a fluorescent substrate. This well plate was then incubated for 3 hours at 37° C., after which a 50 ul sample of the reaction was combined with 200 ul of stop solution in a new well plate and the plate was read using a fluorometer (360ex/485em), The fluorescence intensity was then normalized to cellular protein and this ratio was used as an index of SA-B-GAL activity.

[2] = test system: patient derived, NRAS-mutated melanoma cells; assay: Cell viability (Alamar blue) in melanoma cells; assay type: cell-based, human; details: 3 days treatment, 3 biological repeats
Procedure: (§3) In support of the present teachings several experiments were conducted to assess the cytotoxicity of compound 1 (Acetyl Zingerone CAT), available as Synoxyl® AZ from Sytheon Ltd.) and Compound 4, its mono-methoxy analog (3-(4-Methoxy-benzyl)-pentane-2,4-dione (MBPD)), towards normal melanocytes (Normal, C57BL/6 mouse melanocytes, darkly pigmented), and patient derived, NRAS-mutated melanoma cells. On Day 1, the melanoma cells and normal melanocytes were seeded into the black walled 96 well plates (cat. no.—165305, thermo), ˜1000 cells per well and allowed to stand for one day. […] Thereafter, the dye was replaced with 100 ul PBS (Cat. no. 14190-144, Gibco) and cell viability as evidenced by fluorescence was recorded (by Biotek synergy/H1 microplate reader) at 560/590 nm. Cell survival was calculated by subtracting the background (media only) and then normalizing those results with the results obtained from the cells that were not treated with AZ or MBPD. […]

[3] = test system: human epidermal keratinocytes; assay: MTT assay (cell viability) after H2O2-induced senescence; assay type: cell-based
Procedure: as §1, §2
MTT Calculation: the mean MIT absorbance value for untreated cells not exposed to H2O2 was calculated and used to represent 100% cell viability. The individual MIT values from the cells undergoing the various treatments was then divided by the mean value for the untreated cells not exposed to H2O2 and expressed as a percent to determine the change in cell viability caused by each treatment.

AMPK = AMPK activation study (phosphorylation of AMPK at Thr-172) in epidermal keratinocytes; assay type: cell-based, human; details: for AMPK-P/Protein Ratio: two hours
Procedure: as §1
The ability of the test material to activate AMPK was determined by measuring the phosphorylation of AMPK. The epidermal keratinocytes were treated with the test material prepared in basal media for two hours. At the end of the two-hour incubation the culture media was removed and the cells were fixed in 4% formaldehyde for 20 minutes at room temperature. After the fixation, the cells were washed three times with wash solution (1 minute per wash) and any endogenous peroxidase activity was quenched by adding 100 ul of a 0.3% H2O2 solution to the wells and incubating the plate for another 20 minutes. After washing as described above, non-specific antibody binding was blocked by adding 200 ul of blocking buffer to each well and incubating the plate for 1 hour at room temperature. […] After this incubation the well plate was read using a fluorometer at 530ex/590em to determine AMPK phosphorylation and at 360ex/485em to determine total cellular protein.

[4] = test system: Trametinib resistant human, NRAS mutated, WM1366 melanoma cells; assay: MBPD/Trametinib synergy, cell viability (Alamar blue); assay type: cell-based
Procedure: Specifically, Trametinib resistant human, NRAS mutated, WM1366 melanoma cells were created in-house by sequentially treating the cells with various concentrations (2 nM-10 nM) of Trametinib for several weeks. Those cells which survived 2 nM Trametinib after two weeks, were then incubated with 4 nM Trametinib and those that survived 4 nM Trametinib for two weeks were isolated and then incubated with 10 nM for several weeks. This led to development of resistance in the WM1366 cells.
In this study, the Trametinib resistant cells were seeded into black walled 96 well plates (cat. no.—165305, thermo), ˜1000 cells per well employing the same media as noted in Example 1. On Day 2, the cells were treated with 125 or 62.5 μg/ml MBPD and incubated for 48 hours. After 48 hours, fresh cell-culture medium was added with MBPD and Trametinib at concentrations of 30, 15, 7.5, 3.75, 1.875, and 0.9375 nM and the cells allowed to sit for 72 hours. On Day 7, Alamar blue (cat. no. A50101, invitrogen) was added to each well and the cultures incubated for 1 hr in a CO2 incubator. Thereafter, the dye was replaced with 100 ul PBS (Cat no. 14190-144, Gibco) and cell viability as evidenced by fluorescence was recorded (by Biotek synergy/H1 microplate reader) at 560/590 nm.
Molar (M) IC50 values were calculated using formula weight of each of the compounds individually.

[5] = test system: Normal, C57BL/6 mouse melanocytes, darkly pigmented; assay: Cell viability (Alamar blue) in normal melanocytes; assay type: cell-based; details: Melanocyte, 72 h, 3 days treatment, 4 biological repeats
Procedure: as §3

- SA-B-Gal Activity/Protein ([1]; 12.5 μg/ml, 50 μM H2O2): 3.45 ± 0.29
- SA-B-Gal Activity/Protein ([1]; 12.5 μg/ml, 100 μM H2O2): 3.29 ± 0.37
- SA-B-Gal Activity/Protein ([1]; 25 μg/ml, 50 μM H2O2): 3.30 ± 0.23
- SA-B-Gal Activity/Protein ([1]; 25 μg/ml, 100 μM H2O2): 3.95 ± 0.36
- SA-B-Gal Activity/Protein ([1]; 50 μg/ml, 50 μM H2O2): 0.91 ± 0.06
- SA-B-Gal Activity/Protein ([1]; 50 μg/ml, 100 μM H2O2): 0.90 ± 0.15
- pIC50 [2]: 2.89
SMILES: COc1cc(CC(C(C)=O)C(C)=O)ccc1O [AZ, Acetyl Zingerone]
- Viability (% of non-H2O2 exposed cells) ([3]; 12.5 μg/ml, 50 μM H2O2): 79.9 ± 11.5%
- Viability (% of non-H2O2 exposed cells) ([3]; 12.5 μg/ml, 100 μM H2O2): 79.1 ± 1.4%
- Viability (% of non-H2O2 exposed cells) ([3]; 25 μg/ml, 50 μM H2O2): 76.1 ± 6.9%
- Viability (% of non-H2O2 exposed cells) ([3]; 25 μg/ml, 100 μM H2O2): 77.4 ± 9.6%
- Viability (% of non-H2O2 exposed cells) ([3]; 50 μg/ml, 50 μM H2O2): 100.7 ± 8.3 %
- Viability (% of non-H2O2 exposed cells) ([3]; 50 μg/ml, 100 μM H2O2): 100.2 ± 6.5%
- AMPK-P/Protein Ratio (AMPK; 25 μg/ml): 4.16 ± 0.65
- increase of AMPK activity (AMPK; 50 μg/ml): 88.3%
- AMPK-P/Protein Ratio (AMPK; 50 μg/ml): 6.48 ± 1.10

- reduction of the Trametinib IC50 by MBPD ([4]; 125 or 62.5 μg/ml MBPD, 48 h pre-incubation then MBPD plus Trametinib 72 h, 2 biological repeats): ~5 fold
- pIC50 ([2]; Homo sapiens, 72 h): 3.40
SMILES: COc1ccc(CC(C(C)=O)C(C)=O)cc1 [MBPD, 3-(4-Methoxy-benzyl)-pentane-2,4-dione]
- pIC50 [5]: 1.84

- pIC50 ([4]; Homo sapiens, in-house generated, Trametinib resistant, NRAS-mutated melanoma cells): 7.70 to 8.00
SMILES: CC(=O)Nc1cccc(-n2c(=O)n(C3CC3)c(=O)c3c(Nc4ccc(I)cc4F)n(C)c(=O)c(C)c32)c1 [Trametinib, trametinib, reference compound]
